From US8541418B2, “Inhibitors of polo-like kinase” (Elan Pharmaceutical, Inc., priority 2009, dated 2013)

Tests used:
Format in all cases: biochemical
PLK1 = PLK1 (Homo sapiens, UniProt P53350); experiment: PLK TR-FRET peptide assay, PLK1; conditions: GST-PLK1, 60 min reaction
PLK3 = PLK3 (Homo sapiens, UniProt Q9H4B4); experiment: PLK TR-FRET peptide assay, PLK3; conditions: GST-PLK3, 15 min reaction, read-out: Plk3 IC50
PLK2 = PLK2 (Homo sapiens, UniProt Q9NYY3); experiment: PLK TR-FRET peptide assay, PLK2; conditions: for IC50: PLK TR-FRET peptide assay, GST-PLK2, 60 min reaction, read-out: Plk2 IC50
Chain of PLK2 (Q9NYY3 whole entry): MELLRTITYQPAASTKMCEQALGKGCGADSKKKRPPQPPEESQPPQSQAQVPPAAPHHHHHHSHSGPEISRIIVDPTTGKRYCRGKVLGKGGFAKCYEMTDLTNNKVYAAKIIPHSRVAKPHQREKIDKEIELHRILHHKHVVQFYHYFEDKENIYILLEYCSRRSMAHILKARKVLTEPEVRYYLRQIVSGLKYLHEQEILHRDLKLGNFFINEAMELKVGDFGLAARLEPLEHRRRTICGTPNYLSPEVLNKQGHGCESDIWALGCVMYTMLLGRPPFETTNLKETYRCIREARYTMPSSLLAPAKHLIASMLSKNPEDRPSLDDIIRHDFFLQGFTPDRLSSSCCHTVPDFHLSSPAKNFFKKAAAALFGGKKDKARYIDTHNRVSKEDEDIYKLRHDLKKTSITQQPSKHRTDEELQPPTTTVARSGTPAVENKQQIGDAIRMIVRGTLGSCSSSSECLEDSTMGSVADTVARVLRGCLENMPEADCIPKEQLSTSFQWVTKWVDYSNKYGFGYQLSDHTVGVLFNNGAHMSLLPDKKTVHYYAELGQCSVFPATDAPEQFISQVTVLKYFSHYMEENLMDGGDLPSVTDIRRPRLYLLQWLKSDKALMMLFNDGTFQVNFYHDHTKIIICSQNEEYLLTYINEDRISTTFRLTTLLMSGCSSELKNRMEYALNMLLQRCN

Chain of PLK1 (P53350 whole entry): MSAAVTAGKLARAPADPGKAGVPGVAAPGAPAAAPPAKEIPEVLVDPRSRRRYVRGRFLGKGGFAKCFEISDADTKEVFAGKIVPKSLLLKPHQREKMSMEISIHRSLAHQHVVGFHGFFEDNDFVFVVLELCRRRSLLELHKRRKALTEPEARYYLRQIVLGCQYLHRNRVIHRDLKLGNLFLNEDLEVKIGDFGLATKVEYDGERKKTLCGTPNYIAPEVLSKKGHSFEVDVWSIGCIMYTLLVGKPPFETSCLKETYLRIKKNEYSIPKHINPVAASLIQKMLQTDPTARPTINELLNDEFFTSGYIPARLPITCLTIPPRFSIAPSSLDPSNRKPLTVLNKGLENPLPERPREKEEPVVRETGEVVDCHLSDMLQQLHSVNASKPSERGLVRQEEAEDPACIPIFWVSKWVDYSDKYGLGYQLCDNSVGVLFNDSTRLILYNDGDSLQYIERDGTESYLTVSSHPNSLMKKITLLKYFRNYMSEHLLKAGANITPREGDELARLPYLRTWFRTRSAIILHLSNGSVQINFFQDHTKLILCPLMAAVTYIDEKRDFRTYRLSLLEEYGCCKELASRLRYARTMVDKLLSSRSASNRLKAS
Chain of PLK3 (Q9H4B4 whole entry): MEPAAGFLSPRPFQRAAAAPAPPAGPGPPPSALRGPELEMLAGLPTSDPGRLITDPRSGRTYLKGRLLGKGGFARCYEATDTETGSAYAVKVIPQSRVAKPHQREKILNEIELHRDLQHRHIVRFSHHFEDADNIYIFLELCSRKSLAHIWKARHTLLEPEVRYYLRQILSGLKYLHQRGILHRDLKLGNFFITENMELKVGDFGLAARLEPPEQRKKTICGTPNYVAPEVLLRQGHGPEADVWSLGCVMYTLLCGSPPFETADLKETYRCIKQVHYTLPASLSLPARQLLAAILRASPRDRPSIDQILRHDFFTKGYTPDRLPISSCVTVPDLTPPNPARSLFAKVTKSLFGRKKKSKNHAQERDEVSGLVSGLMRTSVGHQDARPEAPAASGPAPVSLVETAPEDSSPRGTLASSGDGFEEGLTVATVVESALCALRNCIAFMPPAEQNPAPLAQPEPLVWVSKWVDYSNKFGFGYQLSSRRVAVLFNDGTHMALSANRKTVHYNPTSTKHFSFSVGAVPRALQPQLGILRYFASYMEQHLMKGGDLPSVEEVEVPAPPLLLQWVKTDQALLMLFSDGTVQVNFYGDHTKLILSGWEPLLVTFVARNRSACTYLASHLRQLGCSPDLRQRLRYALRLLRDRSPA

Row | Compound | IC50 (PLK1) [µM] | IC50 (PLK3) [µM] | IC50 (PLK2) [µM] | relative PLK2 activity of the enantiomers (PLK2; compared with the opposite enantiomer)
1 | [2H]C([2H])([2H])N1C(=O)[C@@H](C([2H])([2H])C([2H])([2H])[2H])N(C([2H])(C([2H])([2H])[2H])C([2H])([2H])[2H])c2nc(-n3ccnc3-c3cccc(F)c3)ncc21 [Example 202, (R)-7-perdeuteroethyl-2-(2-(3-fluorophenyl)-1H-imidazol-1-yl)-8-perdeuteroisopropyl-5-trideuteromethyl-7,8-dihydropteridin-6(5H)-one] | < 1 | 1 to 10 | < 1 | more active compound
2 | CC[C@@H]1C(=O)N(C)c2cnc(-n3ccnc3-c3cccc(Cl)c3)nc2N1C(C)C [Example 204, (R)-2-(2-(3-chlorophenyl)-1H-imidazol-1-yl)-7-ethyl-8-isopropyl-5-methyl-7,8-dihydropteridin-6(5H)-one] | < 1 | 1 to 10 | < 1 | 
3 | CC[C@@]12CCCN1c1nc(-n3ccnc3-c3nccc4ccccc34)ncc1N(C)C2=O [Example 206, (S)-6a-ethyl-2-(2-(isoquinolin-1-yl)-1H-imidazol-1-yl)-5-methyl-6a,7,8,9-tetrahydropyrrolo[2,1-h]pteridin-6(5H)-one] | > 50 | 10 to 50 | 1 to 10 | 
4 | CC[C@@H]1C(=O)N(C)c2cnc(-n3nccc3-c3ccccc3)nc2N1C1CCC1 [Example 207, (R)-8-cyclobutyl-7-ethyl-5-methyl-2-(5-phenyl-1H-pyrazol-1-yl)-7,8-dihydropteridin-6(5H)-one] | < 1 | 1 to 10 | < 1 | 
5 | CC[C@@H]1C(=O)N(C)c2cnc(-n3ncnc3-c3ccccc3)nc2N1C1CCC1 [Example 208, (R)-8-cyclobutyl-7-ethyl-5-methyl-2-(5-phenyl-1H-1,2,4-triazol-1-yl)-7,8-dihydropteridin-6(5H)-one] | < 1 | < 1 | < 1 | 
6 | CCC12CCCCCN1c1nc(-n3nccc3-c3ccccc3)ncc1N(C)C2=O (stereo not shown) [Example 209, 6a-ethyl-5-methyl-2-(5-phenyl-1H-pyrazol-1-yl)-6a,7,8,9,10,11-hexahydroazepino[2,1-h]pteridin-6(5H)-one] | 10 to 50 | 10 to 50 | 1 to 10 | 
7 | CC[C@@H]1C(=O)N(C)c2cnc(N3CCN(C)CC3)nc2N1C1CCCC1 [Example 210, (R)-8-cyclopentyl-7-ethyl-5-methyl-2-(4-methylpiperazin-1-yl)-7,8-dihydropteridin-6(5H)-one] | > 50 | > 50 | > 50 | 
8 | CC[C@@H]1C(=O)N(C)c2cnc(-n3ccnc3-c3cccc(Cl)c3)nc2N1C1CCOC1 (stereo partly drawn) [Example 211, (7R)-2-(2-(3-chlorophenyl)-1H-imidazol-1-yl)-7-ethyl-5-methyl-8-(tetrahydrofuran-3-yl)-7,8-dihydropteridin-6(5H)-one] | < 1 | 1 to 10 | < 1 | 
9 | CC[C@@H]1C(=O)N(C)c2cnc(-n3ccnc3-c3ccc(F)cc3)nc2N1C(C)C [Example 212, (R)-7-ethyl-2-(2-(4-fluorophenyl)-1H-imidazol-1-yl)-8-isopropyl-5-methyl-7,8-dihydropteridin-6(5H)-one] | 1 to 10 | 1 to 10 | < 1 | 
10 | CC[C@@]12CCCN1c1nc(-n3ccnc3-c3ccc(F)c(Cl)c3)ncc1N(C)C2=O [Example 213, (S)-2-(2-(3-chloro-4-fluorophenyl)-1H-imidazol-1-yl)-6a-ethyl-5-methyl-6a,7,8,9-tetrahydropyrrolo[2,1-h]pteridin-6(5H)-one] | 10 to 50 | 10 to 50 | < 1 | 
11 | CC[C@@H]1C(=O)N(C)c2cnc(N3CCNC(=O)C3)nc2N1C1CCCC1 [Example 214, (R)-8-cyclopentyl-7-ethyl-5-methyl-2-(3-oxopiperazin-1-yl)-7,8-dihydropteridin-6(5H)-one] | 1 to 10 | > 50 | 10 to 50 | 
12 | CC[C@@H]1C(=O)N(C)c2cnc(-n3ncnc3-c3cccc4ncccc34)nc2N1C1CCC1 [Example 215, (R)-8-cyclobutyl-7-ethyl-5-methyl-2-(5-(quinolin-5-yl)-1H-1,2,4-triazol-1-yl)-7,8-dihydropteridin-6(5H)-one] | 1 to 10 | 1 to 10 | 1 to 10 | 
13 | CC[C@@]12CCCN1c1nc(-n3ccnc3-c3ccc(Cl)s3)ncc1N(C)C2=O [Example 218, (S)-2-(2-(5-chlorothiophen-2-yl)-1H-imidazol-1-yl)-6a-ethyl-5-methyl-6a,7,8,9-tetrahydropyrrolo[2,1-h]pteridin-6(5H)-one] | 10 to 50 | 10 to 50 | < 1 | 
14 | CC[C@@]12CCCN1c1nc(-n3ncnc3-c3cccc4ncccc34)ncc1N(C)C2=O [Example 219, (S)-6a-ethyl-5-methyl-2-(5-(quinolin-5-yl)-1H-1,2,4-triazol-1-yl)-6a,7,8,9-tetrahydropyrrolo[2,1-h]pteridin-6(5H)-one] | 10 to 50 | > 50 | 1 to 10 | 
15 | CC[C@@H]1C(=O)N(C)c2cnc(-n3ccnc3-c3cccc(Br)c3)nc2N1C(C)C [Example 220, (R)-2-(2-(3-bromophenyl)-1H-imidazol-1-yl)-7-ethyl-8-isopropyl-5-methyl-7,8-dihydropteridin-6(5H)-one] | < 1 | 1 to 10 | < 1 | 
16 | CC[C@@]12CCCN1c1nc(-c3cncnc3-c3ccccc3)ncc1N(C)C2=O [Example 222, (S)-6a-ethyl-5-methyl-2-(4-phenylpyrimidin-5-yl)-6a,7,8,9-tetrahydropyrrolo[2,1-h]pteridin-6(5H)-one] | 10 to 50 | 10 to 50 | 1 to 10 | 
17 | CC[C@@H]1C(=O)N(C)c2cnc(N3CCN(c4cnccn4)CC3)nc2N1C1CCCC1 [Example 223, (R)-8-cyclopentyl-7-ethyl-5-methyl-2-(4-(pyrazin-2-yl)piperazin-1-yl)-7,8-dihydropteridin-6(5H)-one] | 1 to 10 | > 50 | 1 to 10 | 
18 | CC[C@@H]1C(=O)N(C)c2cnc(-n3ccnc3-c3ccc(F)cn3)nc2N1C1CCC1 [Example 224, (R)-8-cyclobutyl-7-ethyl-2-(2-(5-fluoropyridin-2-yl)-1H-imidazol-1-yl)-5-methyl-7,8-dihydropteridin-6(5H)-one] | 1 to 10 | 10 to 50 | < 1 | 
19 | CC[C@@]12CCCN1c1nc(-n3ccnc3-c3cccc(F)c3)ncc1N(C)C2=O [Example 225, (S)-6a-ethyl-2-(2-(3-fluorophenyl)-1H-imidazol-1-yl)-5-methyl-6a,7,8,9-tetrahydropyrrolo[2,1-h]pteridin-6(5H)-one] | 1 to 10 | 10 to 50 | < 1 | 
20 | CC[C@@]12CCCN1c1nc(-n3ccnc3-c3cc(F)cc(F)c3)ncc1N(C)C2=O [Example 226, (S)-2-(2-(3,5-difluorophenyl)-1H-imidazol-1-yl)-6a-ethyl-5-methyl-6a,7,8,9-tetrahydropyrrolo[2,1-h]pteridin-6(5H)-one] | 10 to 50 | 10 to 50 | < 1 | 
21 | CC[C@@H]1C(=O)N(C)c2cnc(-n3ccnc3-c3ccc(C#N)cc3)nc2N1C(C)C [Example 227, (R)-4-(1-(7-ethyl-8-isopropyl-5-methyl-6-oxo-5,6,7,8-tetrahydropteridin-2-yl)-1H-imidazol-2-yl)benzonitrile] | 10 to 50 | 10 to 50 | < 1 | 
22 | CC[C@@H]1C(=O)N(C)c2cnc(-n3ccnc3-c3cccc(C#N)c3)nc2N1C(C)C [Example 228, (R)-3-(1-(7-ethyl-8-isopropyl-5-methyl-6-oxo-5,6,7,8-tetrahydropteridin-2-yl)-1H-imidazol-2-yl)benzonitrile] | 1 to 10 | 10 to 50 | < 1 | 
23 | CC[C@@H]1C(=O)N(C)c2cnc(-n3ccnc3-c3ccc(F)c(F)c3)nc2N1C1CC(F)C1 (stereo partly drawn) [Example 229, (R)-2-(2-(3,4-difluorophenyl)-1H-imidazol-1-yl)-7-ethyl-8-(3-fluorocyclobutyl)-5-methyl-7,8-dihydropteridin-6(5H)-one] | 1 to 10 | 1 to 10 | < 1 | 
24 | CC[C@@H]1C(=O)N(C)c2cnc(-n3ccnc3C3=CCCC3)nc2N1C1CCCC1 [Example 231, (R)-2-(2-cyclopentenyl-1H-imidazol-1-yl)-8-cyclopentyl-7-ethyl-5-methyl-7,8-dihydropteridin-6(5H)-one] | 1 to 10 | 1 to 10 | < 1 | 
25 | CC[C@@H]1C(=O)N(C)c2cnc(-n3ccnc3-c3ccc(F)c(Cl)c3)nc2N1C1CCOC1 (stereo partly drawn) [Example 232, (7R)-2-(2-(3-chloro-4-fluorophenyl)-1H-imidazol-1-yl)-7-ethyl-5-methyl-8-(tetrahydrofuran-3-yl)-7,8-dihydropteridin-6(5H)-one] | 1 to 10 | 1 to 10 | < 1 | 
26 | CC[C@@H]1C(=O)N(C)c2cnc(-n3ccnc3-c3ccncc3)nc2N1CCC(F)(F)F [Example 234, (R)-7-ethyl-5-methyl-2-(2-(pyridin-4-yl)-1H-imidazol-1-yl)-8-(3,3,3-trifluoropropyl)-7,8-dihydropteridin-6(5H)-one] | 1 to 10 | 10 to 50 | < 1 | 
27 | CC[C@@]12CCCN1c1nc(-n3ncnc3C#Cc3ccccc3)ncc1N(C)C2=O [Example 235, (S)-6a-ethyl-5-methyl-2-(5-(phenylethynyl)-1H-1,2,4-triazol-1-yl)-6a,7,8,9-tetrahydropyrrolo[2,1-h]pteridin-6(5H)-one] | > 50 | 10 to 50 | 10 to 50 | 
28 | CC[C@@]12CCCN1c1nc(-n3ccnc3-c3cccc(Cl)c3)ncc1N(C)C2=O [Example 236, (S)-2-(2-(3-chlorophenyl)-1H-imidazol-1-yl)-6a-ethyl-5-methyl-6a,7,8,9-tetrahydropyrrolo[2,1-h]pteridin-6(5H)-one] | 1 to 10 | 10 to 50 | < 1 | 
